# In patent publication US12194051B2, “5-azaindazole derivatives as adenosine receptor antagonists” (MERCK PATENT GMBH, priority 2018, dated 2025):
# pIC50: −log10 of the molar value.
# Tests used:
# human A2A receptors = target: T1, human A2A receptors (Homo sapiens, UniProt P29274); test: Inhibition of human A2A receptor in recombinant HEK293 cells, cAMP quantification (HTRF); type: cell-based; conditions: read-out: A2A (Category)
# T1 construct: expressed in transfected cells; host or cells: HEK293
# Description: (§1) The functional activities of human A2A and A2B receptors were determined by quantification of cAMP, being the second messenger for adenosine receptors.
# (§2) After a 15 min incubation, HTRF reagents (cAMP dynamic 2, Cis Bio) were added and the cellular cAMP levels were determined using the ENVISION (Perkin Elmer) plate reader.
# human A2B receptors = target: T2, human A2B receptors (Homo sapiens, UniProt P29275); test: Inhibition of human A2B receptor in recombinant HEK293 cells, cAMP quantification (HTRF); type: cell-based; conditions: read-out: A2B (Category)
# T2 construct: expressed in transfected cells; host or cells: HEK293
# T2 sequence (P29275 1-332): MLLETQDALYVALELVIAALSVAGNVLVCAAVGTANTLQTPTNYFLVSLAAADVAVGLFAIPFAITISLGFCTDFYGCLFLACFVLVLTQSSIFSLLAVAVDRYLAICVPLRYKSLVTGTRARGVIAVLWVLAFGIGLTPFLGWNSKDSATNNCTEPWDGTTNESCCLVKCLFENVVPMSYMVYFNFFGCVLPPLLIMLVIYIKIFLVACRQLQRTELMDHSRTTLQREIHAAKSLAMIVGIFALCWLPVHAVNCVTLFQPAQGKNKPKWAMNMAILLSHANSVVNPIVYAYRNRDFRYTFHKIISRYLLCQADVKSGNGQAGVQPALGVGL
# Description: as §1, §2
# T1 sequence (P29274 whole entry): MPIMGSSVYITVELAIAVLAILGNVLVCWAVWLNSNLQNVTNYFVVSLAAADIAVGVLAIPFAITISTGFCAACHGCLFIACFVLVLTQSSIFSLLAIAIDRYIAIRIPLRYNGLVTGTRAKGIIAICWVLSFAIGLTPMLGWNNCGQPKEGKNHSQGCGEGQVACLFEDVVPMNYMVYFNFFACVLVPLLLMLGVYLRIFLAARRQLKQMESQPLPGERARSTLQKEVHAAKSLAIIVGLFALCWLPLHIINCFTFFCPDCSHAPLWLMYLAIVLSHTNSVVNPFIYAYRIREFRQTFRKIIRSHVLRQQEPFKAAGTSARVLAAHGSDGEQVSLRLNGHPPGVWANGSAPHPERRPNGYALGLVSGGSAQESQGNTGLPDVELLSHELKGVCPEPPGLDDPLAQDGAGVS
SMILES,pIC50 (human A2A receptors),pIC50 (human A2B receptors)
"O=C(c1cc2c(cn1)c(Nc1ccc(Cl)cc1)nn2CC(F)(F)F)N1CCCOCC1 [Compound 38, [3-(4-chloroanilino)-1-(2,2,2-trifluoroethyl)pyrazolo[4,3-c]pyridin-6-yl]-(1,4-oxazepan-4-yl)methanone]",> 7.00,> 7.00
"[2H]C1([2H])COCCN(C(=O)c2cc3c(cn2)c(Nc2cccc(F)c2)nn3CC(F)(F)F)C1 [Compound 40, (6,6-dideuterio-1,4-oxazepan-4-yl)-[3-(3-fluoroanilino)-1-(2,2,2-trifluoroethyl)pyrazolo[4,3-c]pyridin-6-yl]methanone]",> 7.00,> 7.00
"[2H]C1([2H])COCCN(C(=O)c2cc3c(cn2)c(Nc2ccc(F)cc2)nn3CC(F)(F)F)C1 [Compound 41, (6,6-dideuterio-1,4-oxazepan-4-yl)-[3-(4-fluoroanilino)-1-(2,2,2-trifluoroethyl)pyrazolo[4,3-c]pyridin-6-yl]methanone]",> 7.00,> 6.00
"O=C(c1cc2c(cn1)c(Nc1ccccn1)nn2CC(F)(F)F)N1CCCOCC1 [Compound 42, 1,4-oxazepan-4-yl-[3-(2-pyridylamino)-1-(2,2,2-trifluoroethyl)pyrazolo[4,3-c]pyridin-6-yl]methanone]",> 7.00,> 7.00
"O=C(c1cc2c(cn1)c(Nc1ccc(F)cn1)nn2CC(F)(F)F)N1CCCOCC1 [Compound 44, [3-[(5-fluoro-2-pyridyl)amino]-1-(2,2,2-trifluoroethyl)pyrazolo[4,3-c]pyridin-6-yl]-(1,4-oxazepan-4-yl)methanone]",> 7.00,> 7.00
"O=C(c1cc2c(cn1)c(Nc1cc(F)ccn1)nn2CC(F)(F)F)N1CCCOCC1 [Compound 46, [3-[(4-fluoro-2-pyridyl)amino]-1-(2,2,2-trifluoroethyl)pyrazolo[4,3-c]pyridin-6-yl]-(1,4-oxazepan-4-yl)methanone]",> 7.00,> 7.00
"O=C(c1cc2c(cn1)c(Nc1ccccn1)nn2CC(F)(F)F)N1CC2CCC(C1)O2 [Compound 47, 8-oxa-3-azabicyclo[3.2.1]octan-3-yl-[3-(2-pyridylamino)-1-(2,2,2-trifluoroethyl)pyrazolo[4,3-c]pyridin-6-yl]methanone]",> 7.00,> 7.00
"O=C(c1cc2c(cn1)c(Nc1ccc(Cl)cn1)nn2CC(F)(F)F)N1CCCOCC1 [Compound 48, [3-[(5-chloro-2-pyridyl)amino]-1-(2,2,2-trifluoroethyl)pyrazolo[4,3-c]pyridin-6-yl]-(1,4-oxazepan-4-yl)methanone]",> 7.00,> 7.00
"O=C(c1cc2c(cn1)c(Nc1cccc(F)n1)nn2CC(F)(F)F)N1CCCOCC1 [Compound 49, [3-[(6-fluoro-2-pyridyl)amino]-1-(2,2,2-trifluoroethyl)pyrazolo[4,3-c]pyridin-6-yl]-(1,4-oxazepan-4-yl)methanone]",> 7.00,> 7.00
"O=C(c1cc2c(cn1)c(Nc1cccc(Cl)n1)nn2CC(F)(F)F)N1CCCOCC1 [Compound 51, [3-[(6-chloro-2-pyridyl)amino]-1-(2,2,2-trifluoroethyl)pyrazolo[4,3-c]pyridin-6-yl]-(1,4-oxazepan-4-yl)methanone]",> 7.00,> 6.00
"O=C(c1cc2c(cn1)c(Nc1ccccn1)nn2CC(F)(F)F)N1CCOCC(O)C1 (centres unmarked) [Compound 52, (6-hydroxy-1,4-oxazepan-4-yl)-[3-(2-pyridylamino)-1-(2,2,2-trifluoroethyl)pyrazolo[4,3-c]pyridin-6-yl]methanone]",> 7.00,> 7.00
"CC1(O)CCN(C(=O)c2cc3c(cn2)c(Nc2ccccn2)nn3CC(F)(F)F)CC1 [Compound 53, (4-hydroxy-4-methyl-1-piperidyl)-[3-(2-pyridylamino)-1-(2,2,2-trifluoroethyl)pyrazolo[4,3-c]pyridin-6-yl]methanone]",> 7.00,> 7.00
"[2H]C1([2H])COCCN(C(=O)c2cc3c(cn2)c(Nc2ccccn2)nn3CC(F)(F)F)C1 [Compound 59, (6,6-dideuterio-1,4-oxazepan-4-yl)-[3-(2-pyridylamino)-1-(2,2,2-trifluoroethyl)pyrazolo[4,3-c]pyridin-6-yl]methanone]",> 7.00,> 7.00
"[2H]C1([2H])COCCN(C(=O)c2cc3c(cn2)c(Nc2cc(F)ccn2)nn3CC(F)(F)F)C1 [Compound 60, (6,6-dideuterio-1,4-oxazepan-4-yl)-[3-[(4-fluoro-2-pyridyl)amino]-1-(2,2,2-trifluoroethyl)pyrazolo[4,3-c]pyridin-6-yl]methanone]",> 7.00,> 7.00
"O=C(c1cc2c(cn1)c(Nc1cnccn1)nn2CC(F)(F)F)N1CCCOCC1 [Compound 61, 1,4-oxazepan-4-yl-[3-(pyrazin-2-ylamino)-1-(2,2,2-trifluoroethyl)pyrazolo[4,3-c]pyridin-6-yl]methanone]",> 7.00,> 7.00
"O=C(c1cc2c(cn1)c(Nc1cc(C(F)(F)F)ccn1)nn2CC(F)(F)F)N1CCCOCC1 [Compound 62, 1,4-oxazepan-4-yl-[1-(2,2,2-trifluoroethyl)-3-[[4-(trifluoromethyl)-2-pyridyl]amino]pyrazolo[4,3-c]pyridin-6-yl]methanone]",> 7.00,> 6.00
"COc1ccnc(Nc2nn(CC(F)(F)F)c3cc(C(=O)N4CCCOCC4)ncc23)c1 [Compound 63, [3-[(4-methoxy-2-pyridyl)amino]-1-(2,2,2-trifluoroethyl)pyrazolo[4,3-c]pyridin-6-yl]-(1,4-oxazepan-4-yl)methanone]",> 7.00,> 7.00
"O=C(c1cc2c(cn1)c(Nc1cc(Cl)ccn1)nn2CC(F)(F)F)N1CCCOCC1 [Compound 64, [3-[(4-chloro-2-pyridyl)amino]-1-(2,2,2-trifluoroethyl)pyrazolo[4,3-c]pyridin-6-yl]-(1,4-oxazepan-4-yl)methanone]",> 7.00,> 7.00
"O=C(c1cc2c(cn1)c(Nc1ccc(F)c(Cl)n1)nn2CC(F)(F)F)N1CCCOCC1 [Compound 65, [3-[(6-chloro-5-fluoro-2-pyridyl)amino]-1-(2,2,2-trifluoroethyl)pyrazolo[4,3-c]pyridin-6-yl]-(1,4-oxazepan-4-yl)methanone]",> 7.00,> 6.00
"O=C(c1cc2c(cn1)c(Nc1cc(Cl)c(F)cn1)nn2CC(F)(F)F)N1CCCOCC1 [Compound 66, [3-[(4-chloro-5-fluoro-2-pyridyl)amino]-1-(2,2,2-trifluoroethyl)pyrazolo[4,3-c]pyridin-6-yl]-(1,4-oxazepan-4-yl)methanone]",> 7.00,> 6.00
"Cc1ccnc(Nc2nn(CC(F)(F)F)c3cc(C(=O)N4CCCOCC4)ncc23)c1 [Compound 68, [3-[(4-methyl-2-pyridyl)amino]-1-(2,2,2-trifluoroethyl)pyrazolo[4,3-c]pyridin-6-yl]-(1,4-oxazepan-4-yl)methanone]",> 7.00,> 6.00
"O=C(c1cc2c(cn1)c(Nc1cc(F)c(Cl)cn1)nn2CC(F)(F)F)N1CCCOCC1 [Compound 71, [3-[(5-chloro-4-fluoro-2-pyridyl)amino]-1-(2,2,2-trifluoroethyl)pyrazolo[4,3-c]pyridin-6-yl]-(1,4-oxazepan-4-yl)methanone]",> 7.00,> 7.00
"O=C(c1cc2c(cn1)c(Nc1ccncn1)nn2CC(F)(F)F)N1CCCOCC1 [Compound 73, [1,4]Oxazepan-4-yl-[3-(pyrimidin-4-ylamino)-1-(2,2,2-trifluoro-ethyl)-1H-pyrazolo[4,3-c]pyridin-6-yl]-methanone]",> 7.00,> 6.00
"O=C(c1cc2c(cn1)c(Nc1cnccn1)nn2CC(F)(F)F)N1CCC(O)CC1 [Compound 74, (4-Hydroxy-piperidin-1-yl)-[3-(pyrazin-2-ylamino)-1-(2,2,2-trifluoro-ethyl)-1H-pyrazolo[4,3-c]pyridin-6-yl]-methanone]",> 7.00,> 7.00
"O=C(c1cc2c(cn1)c(Nc1cnc(Cl)cn1)nn2CC(F)(F)F)N1CCC(O)CC1 [Compound 75, [3-(5-Chloro-pyrazin-2-ylamino)-1-(2,2,2-trifluoro-ethyl)-1H-pyrazolo[4,3-c]pyridin-6-yl]-(4-hydroxy-piperidin-1-yl)-methanone]",> 7.00,> 7.00
"O=C(c1cc2c(cn1)c(Nc1ccncn1)nn2CC(F)(F)F)N1CCC(O)CC1 [Compound 76, (4-Hydroxy-piperidin-1-yl)-[3-(pyrimidin-4-ylamino)-1-(2,2,2-trifluoro-ethyl)-1H-pyrazolo[4,3-c]pyridin-6-yl]-methanone]",> 7.00,> 6.00
"CS(=O)(=O)Cn1nc(Nc2ccc(F)cn2)c2cnc(C(=O)N3CCCOCC3)cc21 [Compound 77, [3-(5-Fluoro-pyridin-2-ylamino)-1-methanesulfonylmethyl-1H-pyrazolo[4,3-c]pyridin-6-yl]-[1,4]oxazepan-4-yl-methanone]",> 7.00,> 7.00
"CS(=O)(=O)Cn1nc(Nc2ccc(Cl)cn2)c2cnc(C(=O)N3CCCOCC3)cc21 [Compound 78, [3-(5-Chloro-pyridin-2-ylamino)-1-methanesulfonylmethyl-1H-pyrazolo[4,3-c]pyridin-6-yl]-[1,4]oxazepan-4-yl-methanone]",> 7.00,> 7.00
